Where “and” joins values, the source holds several entries; their conditions need not be identical. Equal entries are not always repeated.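 96-well plates; 48 h exposure; 5 concentrations. Endpoints by linear interpolation between flanking doses. Not reached: highest tested concentration assigned. The concentration for 50% growth inhibition is given as GI50. At the TGI there is no net growth.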

Assay in all cases: NCI tumour cell line growth inhibition, 48 h
Assay [1] deals with DLD-1 colon.
The subject of assay [2] is DMS 273 small cell lung.
In assay [3] the test system is LXFL 529 NSCLC.
For assay [4], the system named is DMS 114 small cell lung.
Assay [5] concerns HOP-18 NSCLC.
The test system of assay [6] is RXF-631 renal.
The subject of assay [7] is SNB-78 CNS.
For assay [8], the system named is P388 leukemia.
In assay [9] the test system is P388/ADR leukemia.
The subject of assay [10] is SN12K1 renal.
The subject of assay [11] is XF 498 CNS.

`CN(C)C(=O)OC1C(=O)N(C)c2ccc(Cl)cc2C2(c3ccccc3)N1C2(Cl)Cl` (configuration not stated): the TGI in assay [1], in [2] and in assay [3] was above 100 µM in each case.

As to `[Cl][Sn]([c]1ccccc1)([c]1ccccc1)[c]1ccccc1`, the GI50 in assay [1] was 0.0378 µM and < 0.01 µM; in assay [4] it was 0.0237 µM and 0.0186 µM; in [2], 0.0283 µM; in [5] it was 0.0293 µM; in assay [3], 0.0353 µM and 0.0227 µM; in [6], 0.0472 µM. Besides, the GI50 in [7] is 0.0847 µM and 0.0219 µM. For the same compound, the TGI was 0.14 µM and 0.0282 µM in assay [1]; 0.062 µM and 0.102 µM in assay [4]; 0.0761 µM in assay [2]; 0.113 µM in [5]; 0.131 µM and 0.0798 µM in assay [3]; 0.149 µM in assay [6]. Further, the TGI in assay [7] is 0.439 µM and 0.0851 µM.

As to `C/C=C/c1cc(=O)c([C@@H]2OC(=O)c3cc(OC)cc(OC)c32)co1`, the TGI came to 56.6 µM in [4] and 91.6 µM in assay [3].

For `COc1cc2ccc(=O)oc2cc1O`, the TGI in [1] is 552 µM; in assay [4] it was 335 µM; in assay [2] it was 99.6 µM; in [5], 521 µM; in [8], 233 µM; in [9], 103 µM. Besides, the TGI in assay [10] was 236 µM; in assay [7] it was above 625 µM; in assay [11] it was 337 µM.

Regarding `CC(=O)Oc1cc2c(cc1OC(C)=O)OCC(c1ccc(C)cc1)C2` (configuration not stated), the TGI in assay [1] came to 45.9 µM; in [4], 18.7 µM; in [2] it was 48.5 µM; in [5], 62.1 µM; in assay [8], 20.8 µM; in assay [9], 11.4 µM. The TGI came to 34 µM in assay [10], 55.5 µM in [7] and 32.2 µM in assay [11].

As to `COc1c(O)c(C=O)c2c(O)c(-c3c(C)cc4c(C(C)C)c(OC)c(O)c(C=O)c4c3O)c(C)cc2c1C(C)C`, the TGI in [1] was found to be 15.8 µM; in assay [4], 6.93 µM; in [2], 14.9 µM; in [3] it was 12 µM; in assay [7], 52.3 µM.

(Values after PubChem BioAssay (NCI).)
